The text below walks through data of patent US20210315840A1, “SOLID ORAL DOSAGE FORMS OF KETAMINE DERIVATIVES” (priority 2017, published 2021).

The nature of one data set: Metabolite profiling. It counts as in vitro ADME.
Data set [1] has as its system cryopreserved hepatocytes. Briefly: Hepatocyte stability assay, dog. The following applies: 3 μM.
Procedure: (§1) Test compound (3 μM) was incubated with cryopreserved hepatocytes in suspension. Samples are removed at 6 time points over the course of 120 minutes and analysed by LC-MS/MS.
Data set [2] in a line: pKa by potentiometric (pH-metric) titration. Format: physicochemical. The following applies: methanol-water co-solvent, Yasuda-Shedlovsky extrapolation. Here is the method: The sample pKa was determined using the potentiometric (pH-metric) technique following attempts to determine pKa via UV spectroscopic techniques.
UV-metric: The sample was initially titrated in a fast-UV triple titration between pH 2.0-12.0 at concentrations of 31-19 μM, under aqueous conditions. No evidence of any sample ionisation within the investigated pH range was inferred from the spectroscopic data obtained, meaning that any ionisable groups were remote from chromophores. Therefore, the sample was analysed using the pH-metric method.
pH-metric: The sample was subsequently titrated using the potentiometric technique to determine the non-UV active pKas. A triple titration was carried out under methanol-water co-solvent conditions from pH 2.0-12.0 at concentrations of 0.9-0.6 mM (the methanol mixing ratio varied from 53.0 to 33.3% w/w).

The test system of data set [3] is cryopreserved hepatocytes. Briefly: Hepatocyte stability assay, rat. The following applies: 3 μM.
Procedure: as §1

As for `N[C@@]1(c2ccccc2Cl)CCC[C@@H](O)C1=O` [2R,6R-hydroxynorketamine, 2R,6R-2-(2-Chlorophenyl)-2-(amino)-6-hydroxycyclohexanone], the “metabolic route (in words)” value in “Metabolite profiling” is recorded as “does not undergo phase I metabolism by CYP enzymes, but is glucuronidated”. In data set [1], this compound displayed a CLint of 4.72 μL/min/10^6 cells and a t1/2 of 4.9 h. In addition, in data set [2], the pKa was 6.51+/−0.02. In data set [3], this compound came in with a CLint of 55.2 μL/min/10^6 cells and a t1/2 of 0.418 h.
